The source of these data is US7094557B2, “2-Methyl-3-butenyl-1-pyrophosphoric acid salt and agent for treating lymphocytes” (Chugai Seiyaku Kabushiki Kaisha, priority 1999, dated 2006).

In series [1] the test system is human Vγ2Vδ2 type T cells. The series is described as follows: Proliferation of Vγ2Vδ2 type T cells in treated peripheral blood mononuclear cells (ratio in CD3 cells). It is filed as cell-based. The settings on record: day 11, peripheral blood mononuclear cells of volunteer G. The method, then:
After 12 days, the cells were collected.
10 ml of the peripheral blood collected from a healthy volunteer G was subjected to Ficoll-Paque specific gravity centrifugation to purify the peripheral blood mononuclear cells and they were suspended in a Yssel's medium. The cells were apportioned into a 24-hole plate so that the number of the cells becomes a concentration of 2.5 million/1.5 ml/hole, and then, according to the above-mentioned method, treatments 1 to 5 were conducted as shown in Table 1. […] On the day 11 after conducting the treatment, a ratio of Vγ2Vδ2 type T cells in existing CD3 cells was calculated.

The test system of series [2] is normal peripheral blood cells of A. The settings on record: treated peripheral bloods of A (after freezing and thawing) and F on normal peripheral blood cells of A.
Description: In Test examples, treatment of the peripheral blood by 2-methyl-3-butenyl-1-pyrophosphoric acid or by a salt thereof was conducted as follows unless otherwise specified. Lymphocytes contained in the peripheral blood derived from healthy volunteer were treated so that the final concentration of the pyrophosphoric acid compound was 20 μM, and cultured in a Yssel's medium under conditions of temperature at 37° C. and a carbon dioxide concentration of 5%. […] After 12 days, the cells were collected.
For series [3] the following is noted: for Stable preservation time in solution: neutral aqueous solution.
Series [4] has as its system human Vγ2Vδ2 type T cell clones.
The test system of series [5] is Vγ2Vδ2 type T cells. The settings on record: prior art; cited from earlier work.

Like-named read-outs stand apart in the source and are kept apart here.

As to `C=CC(C)COP(=O)([O-])OP(=O)([O-])[O-].[Na+].[Na+].[Na+]` (centres unmarked) [sodium salt of 2-methyl-3-butenyl-1-pyrophosphoric acid], the “Vγ2Vδ2 type T cells/CD3 cells” value in series [1] (2 μM sodium salt + interleukin-2 10 U/ml) is given as 58.3%; in series [1] (20 μM sodium salt + interleukin-2 10 U/ml) it was 85.5%; in series [1] (200 μM sodium salt + interleukin-2 10 U/ml), 94.5%. Besides, in series [2], the “Cytotoxicity of treated Vγ2Vδ2 type T cells on normal cells” value was “do not attack the normal cells”. Moreover, in series [3] (acidic range of pH 4 or less), the “Dissociation of inorganic pyrophosphoric acid” value is on record as “observed within a few minutes”. Besides, the “Stable preservation time in solution” value is “more than one week” in series [3] (pH 6 to 7, room temperature) and “more than one year” in series [3] (pH 6 to 7, −20° C.). Also, in series [4], the “Amount in whose presence the human Vγ2Vδ2 type T cells proliferate” value was “several hundreds μM”. The “Amount that can stimulate the cells” value in series [4] (human Vγ2Vδ2 type T cell clones) is given as “several hundreds nM to several tens μM”.
`CCOP(=O)(O)O` [mono ethyl phosphoric acid]: the “Concentration required to activate Vγ2Vδ2 type T cells” value in series [5] was “several hundreds of μM to several mM”.
Take `C=C(C)CCOP(=O)(O)OP(=O)(O)O` [isopentenyl pyrophosphoric acid]: the “Concentration required to activate Vγ2Vδ2 type T cells” value in series [5] is reported as “several hundreds of μM to several mM”.
